Measured values taken from PubChem BioAssay AID2060901 (Molecular Pharmacology Branch, DTP, NCI, 2025).

Tested on: 422866-222-R5-J1-PDC complex spheroids viability
Test: Anticancer human tumor 422866-222-R5-J1-PDC patient-derived pancreatic adenocarcinoma cell line growth inhibition [RAS]
Settings: for IC50: curve of first compound; for viability, T/C: stronger effect = lower value
Summary of the method: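 Agents were tested in combination matrices in half-log decrements from a top concentration at or near clinical Cmax (10 microM if undetermined). Targets were multi-cell spheroids of tumour lines plus HUVEC and MSC stromal cells.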

[1] = second compound 0.000949 µM, first compound 0.0316 µM
[2] = second compound 0.000949 µM, first compound 0.1 µM
[3] = second compound 0.000949 µM, first compound 0.316 µM
[4] = second compound 0.000949 µM, first compound 1 µM
[5] = second compound 0.000949 µM, first compound 3.16 µM
[6] = second compound 0.000949 µM, first compound 10 µM
[7] = second compound 0.003 µM, first compound 0.0316 µM
[8] = second compound 0.003 µM, first compound 0.1 µM
[9] = second compound 0.003 µM, first compound 0.316 µM
[10] = second compound 0.003 µM, first compound 1 µM
[11] = second compound 0.003 µM, first compound 3.16 µM
[12] = second compound 0.003 µM, first compound 10 µM
[13] = second compound 0.00949 µM, first compound 0.0316 µM
[14] = second compound 0.00949 µM, first compound 0.1 µM
[15] = second compound 0.00949 µM, first compound 0.316 µM
[16] = second compound 0.00949 µM, first compound 1 µM
[17] = second compound 0.00949 µM, first compound 3.16 µM
[18] = second compound 0.00949 µM, first compound 10 µM
[19] = second compound 0.03 µM, first compound 0.0316 µM
[20] = second compound 0.03 µM, first compound 0.1 µM
[21] = second compound 0.03 µM, first compound 0.316 µM
[22] = second compound 0.03 µM, first compound 1 µM
[23] = second compound 0.03 µM, first compound 3.16 µM
[24] = second compound 0.03 µM, first compound 10 µM
[25] = second compound 0.0949 µM, first compound 0.0316 µM
[26] = second compound 0.0949 µM, first compound 0.1 µM
[27] = second compound 0.0949 µM, first compound 0.316 µM
[28] = second compound 0.0949 µM, first compound 1 µM
[29] = second compound 0.0949 µM, first compound 3.16 µM
[30] = second compound 0.0949 µM, first compound 10 µM
[31] = second compound 0.3 µM, first compound 0.0316 µM
[32] = second compound 0.3 µM, first compound 0.1 µM
[33] = second compound 0.3 µM, first compound 0.316 µM
[34] = second compound 0.3 µM, first compound 1 µM
[35] = second compound 0.3 µM, first compound 3.16 µM
[36] = second compound 0.3 µM, first compound 10 µM
[37] = second compound 0.000949 µM, first compound 0.00316 µM
[38] = second compound 0.000949 µM, first compound 0.01 µM
[39] = second compound 0.003 µM, first compound 0.00316 µM
[40] = second compound 0.003 µM, first compound 0.01 µM
[41] = second compound 0.00949 µM, first compound 0.00316 µM
[42] = second compound 0.00949 µM, first compound 0.01 µM
[43] = second compound 0.03 µM, first compound 0.00316 µM
[44] = second compound 0.03 µM, first compound 0.01 µM
[45] = second compound 0.0949 µM, first compound 0.00316 µM
[46] = second compound 0.0949 µM, first compound 0.01 µM
[47] = second compound 0.3 µM, first compound 0.00316 µM
[48] = second compound 0.3 µM, first compound 0.01 µM
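Also: spheroids exposed to compounds for 7 days.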
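For viability, T/C in this document: 100% = DMSO vehicle control viability.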

CC(C)NCC(C(=O)N1CCN(c2ncnc3c2C(C)CC3O)CC1)c1ccc(Cl)cc1 (stereo not drawn) + CCn1c(-c2cccnc2C(C)OC)c2c3cc(ccc31)N1CCOC(CC(NC(=O)C(C(C)C)N(C)C(=O)C3(F)CCN(C(=O)C#CC(C)(C)N(C)C)CC3)C(=O)N3CCCC(N3)C(=O)OCC(C)(C)C2)C1
IC50 (second compound 0.000949 µM): < 31.6 nM | IC50 (second compound 0.003 µM): < 31.6 nM | IC50 (second compound 0.00949 µM): < 31.6 nM | IC50 (second compound 0.03 µM): < 31.6 nM | IC50 (second compound 0.0949 µM): < 31.6 nM | IC50 (second compound 0.3 µM): < 31.6 nM | viability, T/C [1]: 23% | viability, T/C [2]: 23.2% | viability, T/C [3]: 17.5% | viability, T/C [4]: 25% | viability, T/C [5]: 30.9% | viability, T/C [6]: 29.7% | viability, T/C [7]: 22.5% | viability, T/C [8]: 17.6% | viability, T/C [9]: 14.4% | viability, T/C [10]: 14.7% | viability, T/C [11]: 14.4% | viability, T/C [12]: 16.7% | viability, T/C [13]: 21.1% | viability, T/C [14]: 18.9% | viability, T/C [15]: 13.8% | viability, T/C [16]: 13.3% | viability, T/C [17]: 14.8% | viability, T/C [18]: 14.6% | viability, T/C [19]: 17.5% | viability, T/C [20]: 16% | viability, T/C [21]: 12.9% | viability, T/C [22]: 12.1% | viability, T/C [23]: 14.2% | viability, T/C [24]: 16.2% | viability, T/C [25]: 15.2% | viability, T/C [26]: 12% | viability, T/C [27]: 11.8% | viability, T/C [28]: 13.2% | viability, T/C [29]: 15.3% | viability, T/C [30]: 14.1% | viability, T/C [31]: 13.8% | viability, T/C [32]: 13.4% | viability, T/C [33]: 11.3% | viability, T/C [34]: 11.4% | viability, T/C [35]: 14.7% | viability, T/C [36]: 11.6%

CC(C)n1nc(-c2ccc3oc(N)nc3c2)c2c(N)ncnc21 + CCn1c(-c2cccnc2C(C)OC)c2c3cc(ccc31)N1CCOC(CC(NC(=O)C(C(C)C)N(C)C(=O)C3(F)CCN(C(=O)C#CC(C)(C)N(C)C)CC3)C(=O)N3CCCC(N3)C(=O)OCC(C)(C)C2)C1
IC50 (second compound 0.000949 µM): < 0.316 nM | IC50 (second compound 0.003 µM): < 0.316 nM | IC50 (second compound 0.00949 µM): < 0.316 nM | IC50 (second compound 0.03 µM): < 0.316 nM | IC50 (second compound 0.0949 µM): < 0.316 nM | IC50 (second compound 0.3 µM): < 0.316 nM | viability, T/C (second compound 0.000949 µM, first compound 0.000316 µM): 26.9% | viability, T/C (second compound 0.000949 µM, first compound 0.001 µM): 24.3% | viability, T/C [37]: 24.7% | viability, T/C [38]: 22.9% | viability, T/C [1]: 23.1% | viability, T/C [2]: 22.1% | viability, T/C (second compound 0.003 µM, first compound 0.000316 µM): 23.4% | viability, T/C (second compound 0.003 µM, first compound 0.001 µM): 18.7% | viability, T/C [39]: 21% | viability, T/C [40]: 17.6% | viability, T/C [7]: 14.1% | viability, T/C [8]: 16.5% | viability, T/C (second compound 0.00949 µM, first compound 0.000316 µM): 23.4% | viability, T/C (second compound 0.00949 µM, first compound 0.001 µM): 25.9% | viability, T/C [41]: 19.4% | viability, T/C [42]: 16.5% | viability, T/C [13]: 14.7% | viability, T/C [14]: 12.2% | viability, T/C (second compound 0.03 µM, first compound 0.000316 µM): 21.5% | viability, T/C (second compound 0.03 µM, first compound 0.001 µM): 17.6% | viability, T/C [43]: 17.5% | viability, T/C [44]: 16.6% | viability, T/C [19]: 15.4% | viability, T/C [20]: 15.6% | viability, T/C (second compound 0.0949 µM, first compound 0.000316 µM): 17.8% | viability, T/C (second compound 0.0949 µM, first compound 0.001 µM): 15.4% | viability, T/C [45]: 16.9% | viability, T/C [46]: 15.2% | viability, T/C [25]: 12.2% | viability, T/C [26]: 12.5% | viability, T/C (second compound 0.3 µM, first compound 0.000316 µM): 15.4% | viability, T/C (second compound 0.3 µM, first compound 0.001 µM): 18.8% | viability, T/C [47]: 15.2% | viability, T/C [48]: 15.1% | viability, T/C [31]: 12.3% | viability, T/C [32]: 10.2%

CC(Nc1ccc2c(c1)OCCn1cc(N3C(=O)OCC3C(F)F)nc1-2)C(N)=O (stereo not drawn) + CCn1c(-c2cccnc2C(C)OC)c2c3cc(ccc31)N1CCOC(CC(NC(=O)C(C(C)C)N(C)C(=O)C3(F)CCN(C(=O)C#CC(C)(C)N(C)C)CC3)C(=O)N3CCCC(N3)C(=O)OCC(C)(C)C2)C1
IC50 (second compound 0.000949 µM): < 31.6 nM | IC50 (second compound 0.003 µM): < 31.6 nM | IC50 (second compound 0.00949 µM): < 31.6 nM | IC50 (second compound 0.03 µM): < 31.6 nM | IC50 (second compound 0.0949 µM): < 31.6 nM | IC50 (second compound 0.3 µM): < 31.6 nM | viability, T/C [1]: 18.2% | viability, T/C [2]: 15.9% | viability, T/C [3]: 10.3% | viability, T/C [4]: 9.14% | viability, T/C [5]: 26.9% | viability, T/C [6]: 6.64% | viability, T/C [7]: 14.5% | viability, T/C [8]: 11.7% | viability, T/C [9]: 9.43% | viability, T/C [10]: 9.79% | viability, T/C [11]: 19.8% | viability, T/C [12]: 5.92% | viability, T/C [13]: 14.6% | viability, T/C [14]: 11.4% | viability, T/C [15]: 9.65% | viability, T/C [16]: 6.24% | viability, T/C [17]: 17.5% | viability, T/C [18]: 5.13% | viability, T/C [19]: 12.7% | viability, T/C [20]: 10.8% | viability, T/C [21]: 8.08% | viability, T/C [22]: 5.84% | viability, T/C [23]: 16.7% | viability, T/C [24]: 4.66% | viability, T/C [25]: 13.7% | viability, T/C [26]: 9.18% | viability, T/C [27]: 8.36% | viability, T/C [28]: 5.71% | viability, T/C [29]: 17.2% | viability, T/C [30]: 3.5% | viability, T/C [31]: 10.9% | viability, T/C [32]: 8.1% | viability, T/C [33]: 5.84% | viability, T/C [34]: 3.47% | viability, T/C [35]: 10% | viability, T/C [36]: 2.74%

O=C(c1ccc(F)c(F)c1Nc1ccc(I)cc1F)N1CC(O)([C@@H]2CCCCN2)C1 + CCn1c(-c2cccnc2C(C)OC)c2c3cc(ccc31)N1CCOC(CC(NC(=O)C(C(C)C)N(C)C(=O)C3(F)CCN(C(=O)C#CC(C)(C)N(C)C)CC3)C(=O)N3CCCC(N3)C(=O)OCC(C)(C)C2)C1
IC50 (second compound 0.000949 µM): < 3.16 nM | IC50 (second compound 0.003 µM): < 3.16 nM | IC50 (second compound 0.00949 µM): < 3.16 nM | IC50 (second compound 0.03 µM): < 3.16 nM | IC50 (second compound 0.0949 µM): < 3.16 nM | IC50 (second compound 0.3 µM): < 3.16 nM | viability, T/C [37]: 27.1% | viability, T/C [38]: 26.5% | viability, T/C [1]: 21.4% | viability, T/C [2]: 16.9% | viability, T/C [3]: 14.8% | viability, T/C [4]: 14% | viability, T/C [39]: 23.4% | viability, T/C [40]: 17.8% | viability, T/C [7]: 16.9% | viability, T/C [8]: 12.3% | viability, T/C [9]: 10.9% | viability, T/C [10]: 11.7% | viability, T/C [41]: 26.2% | viability, T/C [42]: 19.9% | viability, T/C [13]: 16.2% | viability, T/C [14]: 14.1% | viability, T/C [15]: 11.1% | viability, T/C [16]: 9.8% | viability, T/C [43]: 19.6% | viability, T/C [44]: 15.5% | viability, T/C [19]: 14.3% | viability, T/C [20]: 11.5% | viability, T/C [21]: 11.7% | viability, T/C [22]: 9.56% | viability, T/C [45]: 16.5% | viability, T/C [46]: 13.1% | viability, T/C [25]: 13% | viability, T/C [26]: 9.14% | viability, T/C [27]: 11.8% | viability, T/C [28]: 10.4% | viability, T/C [47]: 15.7% | viability, T/C [48]: 13.3% | viability, T/C [31]: 10.9% | viability, T/C [32]: 9.97% | viability, T/C [33]: 12.4% | viability, T/C [34]: 12.1%
